Test results published in patent US20230147962A1, “FIBROBLAST ACTIVATION PROTEIN LIGANDS FOR TARGETED DELIVERY APPLICATIONS” (PHILOCHEM AG, priority 2020, published 2023).
*1 amine or outer side, *2 acyl side, *3 side chain or, on linkers, in order; H or OH if unused. Where a SMILES comes first, the peptide text is derived from it. The star is where a group is joined. Fluorescein(5-Mal) = O=C1OC2(c3ccc(O)cc3Oc3cc(O)ccc32)c2ccc(N3C(=O)CC(*)C3=O)cc21; X1 = N#C[C@@H]1CC(F)(F)CN1C(=O)CNC(=O)c1ccnc2c(N*)cccc12; Suc = O=C(CCC(=O)[*:2])[*:1]

Legend:
[1] = target: T1, murine FAP (Mus musculus, UniProt P97321); experiment: Affinity measurement to murine FAP by fluorescence polarization; type: binding; settings: binder 10 nM, read-out: KD to mFAP
T1 sequence (P97321 1-761): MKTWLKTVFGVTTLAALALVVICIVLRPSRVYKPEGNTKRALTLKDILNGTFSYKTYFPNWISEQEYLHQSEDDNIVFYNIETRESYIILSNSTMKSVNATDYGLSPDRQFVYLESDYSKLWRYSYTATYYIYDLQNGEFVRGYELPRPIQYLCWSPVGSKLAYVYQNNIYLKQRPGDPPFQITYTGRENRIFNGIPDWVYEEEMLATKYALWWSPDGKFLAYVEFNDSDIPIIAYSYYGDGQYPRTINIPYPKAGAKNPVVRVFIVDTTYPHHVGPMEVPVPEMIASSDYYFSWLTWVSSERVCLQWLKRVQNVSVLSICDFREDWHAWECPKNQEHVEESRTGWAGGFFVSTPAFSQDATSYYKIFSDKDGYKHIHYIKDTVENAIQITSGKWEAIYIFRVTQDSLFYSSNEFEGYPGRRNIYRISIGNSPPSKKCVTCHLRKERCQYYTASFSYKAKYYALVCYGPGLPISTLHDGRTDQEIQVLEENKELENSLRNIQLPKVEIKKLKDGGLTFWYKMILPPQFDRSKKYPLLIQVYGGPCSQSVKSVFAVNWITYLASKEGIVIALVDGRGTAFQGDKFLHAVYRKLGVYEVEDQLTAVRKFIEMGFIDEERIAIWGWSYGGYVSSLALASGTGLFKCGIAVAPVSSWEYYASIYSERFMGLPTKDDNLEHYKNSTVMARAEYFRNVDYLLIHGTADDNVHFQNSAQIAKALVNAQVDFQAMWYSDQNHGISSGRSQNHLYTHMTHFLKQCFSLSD
Procedure: Fluorescence polarization experiments were performed in 384-well plates (non-binding, ps, f-bottom, black, high volume, 30 μL final volume). Stock solutions of human FAP (4 μM) and murine FAP (5 μM) were serially diluted with buffer (50 mM Tris, 100 mM NaCl, 1 mM EDTA, pH=7.4), while the final concentration of the binders was kept constant at 10 nM. The fluorescence anisotropy was measured on a TECAN microtiter plate reader. Experiments were performed in triplicate and the mean anisotropy values fitted using Prism 7.

[2] = target: T2, hFAP (Homo sapiens, UniProt Q12884); experiment: Chromatographic co-elution (PD-10) of ligand-protein complexes, hFAP; type: binding; settings: PD-10 column, hFAP 2 μM
T2 construct: made in house; host or cells: CHO cells, transient gene expression, purified from supernatant
T2 sequence (Q12884 with tags, fused parts or gaps): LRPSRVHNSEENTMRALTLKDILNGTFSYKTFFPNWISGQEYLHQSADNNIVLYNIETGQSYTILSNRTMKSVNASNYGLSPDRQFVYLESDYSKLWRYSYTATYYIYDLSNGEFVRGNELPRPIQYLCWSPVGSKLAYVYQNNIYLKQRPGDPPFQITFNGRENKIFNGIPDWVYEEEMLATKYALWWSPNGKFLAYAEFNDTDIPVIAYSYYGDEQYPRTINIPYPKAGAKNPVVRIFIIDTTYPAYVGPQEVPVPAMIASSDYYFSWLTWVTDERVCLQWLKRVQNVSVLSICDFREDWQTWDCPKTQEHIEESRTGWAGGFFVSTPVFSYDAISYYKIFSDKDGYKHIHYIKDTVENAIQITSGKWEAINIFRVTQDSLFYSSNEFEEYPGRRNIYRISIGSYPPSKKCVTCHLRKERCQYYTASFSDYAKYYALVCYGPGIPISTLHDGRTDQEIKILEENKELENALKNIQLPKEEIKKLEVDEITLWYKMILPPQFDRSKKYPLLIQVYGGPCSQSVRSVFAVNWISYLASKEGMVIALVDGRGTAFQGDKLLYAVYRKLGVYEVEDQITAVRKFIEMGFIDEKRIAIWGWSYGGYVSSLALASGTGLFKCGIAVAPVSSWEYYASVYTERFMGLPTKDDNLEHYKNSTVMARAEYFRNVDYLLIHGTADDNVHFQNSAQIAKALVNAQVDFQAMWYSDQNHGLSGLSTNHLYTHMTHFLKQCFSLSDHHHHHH
Procedure: A PD-10 column was pre-equilibrated with assay buffer (50 mM Tris, 100 mM NaCl, 1 mM EDTA, pH=7.4) prior to the loading of the complex. Human FAP (2 μM) and fluorescein-labeled binders (6 μM) were incubated for 30 min at 37° C. in the dark. The mixture was loaded and the column was flushed using the assay buffer. The flow through was collected in 96-well plates and the fluorescence was measured immediately on a TECAN microtiter plate reader, monitoring the fluorescence at an excitation wavelength of 485 nm and an emission wavelength of 535 nm. The protein quantities were estimated by measuring the absorbance at 280 nm using a Nanodrop 2000/2000c spectrophotometer.
(§1) A PD-10 column was pre-equilibrated with assay buffer (50 mM Tris, 100 mM NaCl, 1 mM EDTA, pH=7.4) prior to the loading of the complex. A mixture of different proteins (hFAP=2 μM, mFAP=5 μM) and conjugate 15 (100 nM) were incubated and loaded on the column. The mixture was flushed using the assay buffer. The flow through was collected in 96-well plates and the fluorescence intensity was measured immediately on a TECAN microtiter plate reader, monitoring the fluorescence at an excitation wavelength of 485 nm and an emission wavelength of 535 nm. The concentration of the proteins was estimated by measuring the absorbance at 280 nm using a Nanodrop 2000/2000c spectrophotometer.

[3] = target: T3, mFAP (Mus musculus, UniProt P97321); experiment: Chromatographic co-elution (PD-10) of ligand-protein complexes, mFAP; type: binding, murine; settings: PD-10 column, mFAP 5 μM
T3 sequence (P97321 1-761): T1 sequence (P97321 1-761)
Procedure: as §1

[4] = system: SK-RC-52.hFAP; experiment: Confocal microscopy on SK-RC-52.hFAP; type: cell-based; settings: t=0 and 1 h
Procedure: (§2) SK-RC-52.hFAP and SK-RC-52 cells were seeded into 4-well cover slip chamber plates at a density of 10^4 cells per well in RPMI medium (1 mL) supplemented with 10% FCS, AA and HEPES (10 mM) and allowed to grow for 24 hours under standard culture conditions. Hoechst 33342 nuclear dye was used to stain nuclear structures.
(§3) The culture medium was replaced with fresh medium containing conjugate 15 (100 nM). Randomly selected colonies imaged on a SP8 confocal microscope equipped with an AOBS device (Leica Microsystems).

[5] = system: SK-RC-52 Wild type; experiment: Confocal microscopy on SK-RC-52 wild type; type: cell-based; settings: negative control cells
Procedure: as §2, §3

[6] = system: HT-1080.hFAP; experiment: Confocal microscopy on HT-1080.hFAP; type: cell-based; settings: t=0 and 1 h
Procedure: as §2, with “HT-1080.hFAP” for “SK-RC-52.hFAP”, “HT-1080” for “SK-RC-52”, “DMEM” for “RPMI”
as §3

SMILES: N#C[C@@H]1CC(F)(F)CN1C(=O)CNC(=O)c1ccnc2c(NC(=O)CCC(=O)N[C@@H](CC(=O)O)C(=O)N[C@@H](CCCCN)C(=O)N[C@@H](CC(=O)O)C(=O)N[C@@H](CSC3CC(=O)N(c4ccc5c(c4)C(=O)OC54c5ccc(O)cc5Oc5cc(O)ccc54)C3=O)C(=O)O)cccc12 (stereo partly drawn) [Conjugate 15, (2R,5S,8S,11S)-8-(4-aminobutyl)-5,11-bis(carboxymethyl)-16-((4-((2-((S)-2-cyano-4,4-difluoropyrrolidin-1-yl)-2-oxoethyl)carbamoyl)quinolin-8-yl)amino)-2-(((1-(3′,6′-dihydroxy-3-oxo-3H-spiro[isobenzofuran-1,9′-xanthen]-5-yl)-2,5-dioxopyrrolidin-3-yl)thio)methyl)-4,7,10,13,16-pentaoxo-3,6,9,12-tetraazahexadecanoic acid] ({X1-Suc}-DKDC(Fluorescein(5-Mal))-OH)
- Kd [1]: 11.6 nM
- complex formation with hFAP in PD-10 co-elution [2]: stable complex is formed
- complex formation with mFAP in PD-10 co-elution [3]: stable complex is formed
- accumulation on SK-RC-52.hFAP cells [4]: accumulation of conjugate 15 on the cell membrane
- accumulation on SK-RC-52 Wild type cells [5]: no accumulation on the cell membrane
- accumulation on HT-1080.hFAP cells [6]: accumulation of conjugate 15 on the cell membrane and inside the cytosol
